Counter-ions that a name gives are not always drawn. Like-named read-outs stand apart in the source and are kept apart here.
What was measured:
[1] = tested on: AMPA receptors; assay: electrophysiological assay, AMPA receptors expressed in oocyte; type: cell-based, rat; conditions: inhibiting or modulating AMPA receptors expressed in oocyte, read-out: AMPA IC50
Excerpt: The compounds of the present invention may be assessed by electrophysiological assays in Xenopus oocytes expressing rat whole brain poly(A)^+ RNA (see Keana et. al. J. Med. Chem. 38: 4367-4379 (1995)) or in cultured rat cortical neurons (see Woodward et. al. Mol. Pharmacol. 47: 568-581 (1995)) for AMPA receptor activity. Compounds which are useful for treating or preventing the adverse consequences of stroke, hypoglycemia, neurodegenerative disorders, anxiety, epilepsy or psychosis, or which induce analgesia, will inhibit the currents across the membranes of the oocyte expressing AMPA receptors. However, if the compound potentiates currents across the oocyte membrane, then the compound is expected to be useful in enhancing cognition or treating schizophrenia or neurodegenerative disease such as Parkinson's Disease.
The potency of antagonism or potentiation for these compounds were determined by electrophysiological assay. Potencies of selective compounds described above in inhibiting or modulating AMPA receptors expressed in oocyte and their anticonvulsant activity against maximal electroshock induced convulsion are shown in Table 1.

[2] = tested on: maximal electroshock induced convulsion; assay: Maximal Electroshock-induced Seizure (MES) test; type: in vivo, mice; conditions: iv, anticonvulsant activity against maximal electroshock induced convulsion; for ED50: Mus musculus
Excerpt: The compounds of the present invention may be tested for […] anticonvulsant activity after iv or ip injection using a number of anticonvulsant tests in mice (audiogenic seizure model in DBA-2 mice. pentylenetetrazol-induced seizures in mice, maximum electroshock seizure test (MES)). The anticonvulsant activity of the AMPA antagonists may be evaluated in the Maximal Electroshock-induced Seizure (MES) test. Seizures are induced by application of current (50 mA, 60 pulses/sec, […], 1 sec duration, d.c.) through saline-coated corneal electrodes using a Ugo Basile ECT device (Model 7801). […] A tonic seizure is defined as a hindlimb extension in excess of 90 degrees from the plane of the body. Results are treated in a quintal manner. The potency of antagonism or potentiation for these compounds were determined by electrophysiological assay. Potencies of selective compounds described above in inhibiting or modulating AMPA receptors expressed in oocyte and their anticonvulsant activity against maximal electroshock induced convulsion are shown in Table 1.

Row | Structure (SMILES) | IC50 [1] | ED50 [2] | melting point | MES ED50 [2] | IC50 ([1]; hydrochloride) | MES ED50 ([2]; hydrochloride)
1 | c1cn(CCc2nc(-c3ccc4c(c3)OCO4)c3cc4c(cc3n2)OCO4)cn1 [2-(Imidazol-1-yl)ethyl-6,7-methylenedioxy-4-(3,4-methylenedioxyphenyl)quinazoline] | 4 µM | 3.1 mg/kg | 160 to 163 °C | – | – | –
2 | CN(C)CCn1c(=O)nc(-c2ccc3c(c2)OCO3)c2cc3c(cc21)OCO3 [1-(2-(dimethylamino)ethyl)-6,7-methylenedioxy-4-(3,4-methylenedioxyphenyl)-quinazolin-2(1H)-one] | 1 µM | – | 175 to 182 °C | 1.5 mg/kg | – | –
3 | CN(C)CCOc1nc(-c2ccc3c(c2)OCO3)c2cc3c(cc2n1)OCO3 [6,7-Methylenedioxy-4-(3,4-methylenedioxyphenyl)-2-(2-(dimethylamino)ethoxy)-quinazoline] | 2.5 µM | 4 mg/kg | – | – | – | –
4 | CC(C)n1c(=O)nc(-c2ccc3c(c2)OCO3)c2cc3oc(=O)n(C)c3cc21 [1-Isopropyl-4-(3,4-methylenedioxyphenyl)-8-methyl-7-oxo-oxazol[5,4-g]quinazolin-2(1H)-one] | 2 µM | 1.5 mg/kg | – | – | – | –
5 | CN(C)CCn1c(=O)nc(-c2ccc3c(c2)OCCO3)c2cc3c(cc21)OCO3 [1-(2-(dimethylamino)ethyl)-6,7-methylenedioxy-4-(3,4-ethylenedioxyphenyl)-quinazolin-2(1H)-one] | 0.2 µM | 1 mg/kg | 220 to 225 °C | – | – | –
6 | O=c1c2cc3c(cc2c(-c2ccc4c(c2)OCO4)nn1CCN1CCCC1)OCO3 [2-[2-(1-Pyrrolidinyl)ethyl]-4-(3,4-methylenedioxyphenyl)-6,7-methylenedioxy-1(2H)-phthalazinone] | 10 µM | 3.8 mg/kg | – | – | – | –
7 | CCN(CC)CCn1c(=O)nc(-c2ccc3c(c2)OCO3)c2cc3c(cc21)OCO3 [1-[2-(diethylamino)ethyl]4-(3,4-methylenedioxyphenyl)-6,7-methylenedioxyquinazolin-2(1H)-one] | 2 µM | 5.2 mg/kg | – | – | – | –
8 | CN(C)CCn1nc(-c2ccc3c(c2)OCO3)c2cc3c(cc2c1=O)OCO3 [2-[2-(Dimethylamino)ethyl]-4-(3,4-methylenedioxyphenyl)-6,7-methylenedioxy-1(2H)-phthalazinone] | 5 µM | 3.5 mg/kg | – | – | – | –
9 | CC(C)n1c(=O)nc(-c2ccc3ccccc3c2)c2cc3c(cc21)OCO3 [1-Isopropyl-6,7-methylenedioxy-4-(2-naphthyl)quinazolin-2(1H)-one] | 2 µM | 4.5 mg/kg | 213 to 215 °C | – | – | –
10 | CN(C)CCOc1nc(-c2ccc3c(c2)OCO3)c2cc3c(cc2n1)OCO3.Cl [6,7-methylenedioxy-4-(3,4-methylenedioxyphenyl)-2-(2-(dimethylamino)ethoxy)quinazoline hydrochloride] | – | 10 mg/kg | – | – | 10 µM | –
11 | [O-][n+]1cnc2cc3c(cc2c1-c1ccc2c(c1)OCO2)OCO3 [6,7-Methylenedioxy-4-(3,4-methylenedioxyphenyl)quinazoline 3-oxide] | 7 µM | 2.5 mg/kg | – | – | – | –
12 | [O-][n+]1c(CCl)nc2cc3c(cc2c1-c1ccc2c(c1)OCO2)OCO3 [2-Chloromethyl-6,7-methylenedioxy-4-(3,4-methylenedioxy-phenyl)quinazoline 3-oxide] | 8 µM | 3.1 mg/kg | – | – | – | –
13 | CN(C)CCn1c(=O)nc(-c2ccc3c(c2)OCO3)c2cc3c(cc21)OCO3 [1-(2-(dimethylamino)ethyl)-6,7-methylenedioxy-4-(3,4-methylenedioxyphenyl)quinazolin-2-(1H)-one hydrochloride] | – | – | – | – | 1.1 µM | 8.1 mg/kg
14 | CC(C)n1c(=O)nc(-c2cc3c(cc2Cl)OCO3)c2cc3c(cc21)OCO3 [1-Isopropyl-6,7-methylenedioxy-4-(2-chloro-4,5-methylenedioxyphenyl)quinazolin-2(1H)-one] | 5.5 µM | 6.2 mg/kg | 147 to 150 °C | – | – | –
15 | CC(C)n1c(=O)nc(-c2ccc3c(c2)OCO3)c2cc3c(cc21)OCO3 [1-Isopropyl-6,7-methylenedioxy-4-(3,4-methylenedioxyphenyl)quinazolin-2(1H)-one] | 2.8 µM | 3 mg/kg | – | – | – | –
16 | [O-][n+]1c(Cn2ccnc2)nc2cc3c(cc2c1-c1ccc2c(c1)OCO2)OCO3 [2-(Imidazol-1-yl)methyl-6,7-methylenedioxy-4-(3,4-methylenedioxyphenyl)quinazoline-3-oxide] | 5 µM | 5 mg/kg | – | – | – | –
17 | CCn1c(=O)nc(-c2ccc3c(c2)OCCO3)c2cc3c(cc21)OCO3 [1-Ethyl-6,7-methylenedioxy-4-(3,4-ethylenedioxyphenyl)quinazolin-2(1H)-one] | 1.1 µM | 3 mg/kg | – | – | – | –
18 | CCOCCn1c(=O)nc(-c2ccc3c(c2)OCO3)c2cc3c(cc21)OCO3 [1-[(2-Ethoxy)ethyl]-6,7-methylenedioxy-4-(3,4-methylenedioxyphenyl)quinazoline-2-one] | 8 µM | 10 mg/kg | – | – | – | –
19 | CCn1c(=O)nc(-c2ccc3c(c2)OCO3)c2cc3c(cc21)OCO3 [1-Ethyl-6,7-methylenedioxy-4-(3,4-methylenedioxyphenyl)quinazolin-2(1H)-one] | 5 µM | 3.4 mg/kg | – | – | – | –

— patent publication US7652006B2, “Substituted 1(2H)-phthalazinones and pharmaceutical compositions thereof” (Euro-Celtique S.A., priority 1998, dated 2010)
